Experimental data from patent publication USRE49223E1, “Water-soluble fluorescence compound and method for preparing the same” (SNU R&DB FOUNDATION, priority 2011, dated 2022).
Values belong to the molecule of their own block, whether it stands above or below them.

Assays:
[1] = test system: osteosarcoma cell line (U2OS); assay: Western blotting test of cell extinction and damage markers (Caspase-3, PARP); format: cell-based; settings: U2OS osteosarcoma cells; 10 μM (FIG. 15)
Description: (§1) After a certain period of time, the degree of cell extinction is evaluated by examining the degree of expression of extinction and damage of a specific factor by using Western Blotting Test and the result is shown in FIG. 15.

[2] = in ethanol; reference standard; cited from earlier work
[3] = Excitation and emission maxima by fluorescent spectrophotometer; format: physicochemical; settings: solvent: Ref. Ex. 1 methanol, 2 ethanol, 3 n-propanol, 4 iso-propanol, 5 n-butanol, 6 DMSO
Description: UV absorption of the final fluorescent compound is determined by using a UV-VISIBLE spectrophotometer (Perkin Elmer, USA). Maximum values of excitation and emission are determined by using a fluorescent spectrophotometer (PTI, USA).
(§2) Except for conducting the photochemical reaction in the presence of an organic solvent such as ethanol (Reference Example 2), n-propanol (Reference Example 3), iso-propanol (Reference Example 4), n- butanol (Reference Example 5) or DMSO (Reference Example 6), respectively, the fluorescent compound is obtained from trans-resveratrol in the same manner as Reference Example 1.

[4] = Fluorescence quantum yield (relative vs rhodamin 6G; absolute PL quantum yield system); format: physicochemical; settings: solvent: Ref. Ex. 1 methanol, 2 ethanol, 3 n-propanol, 4 iso-propanol, 5 n-butanol, 6 DMSO; for Absolute quantum yield: absolute PL quantum yield measurement system; for Relative quantum yield: relative to rhodamin 6G
Description: The absolute quantum yield is determined by using an absolute PL quantum yield measurement system (QE-1000, Otsuka Electronics, Japan). The relative quantum yield is determined by measuring the absorbance and emission intensity for each five concentrations for one solvent, determining the slope of said measured values, and comparing the slope with that of rhodamin 6G (the quantum yield of rhodamin 6G in ethanol is 0.95).
as §2

[5] = test system: breast epithelial cell line; assay: Western blotting test of cell extinction and damage markers (Caspase-3, PARP); format: cell-based; settings: 1, 10 and 100 μM (FIG. 15)
Description: as §1

[6] = test system: breast epithelial cell line; assay: Cytomorphology test (cytotoxicity); format: cell-based; settings: breast epithelial cells, cultured about 72 hours, microscopic examination (FIG. 13)
Description: (§3) In the presence of a test compound or a comparative compound, a cell line is cultured for a certain period of time (about 72 hours) and then a cytotoxicity test is conducted. As a control group, a blank test is conducted in the same manner as above without adding any compound including the test compound and the comparative compound.

[7] = test system: breast epithelial cell; assay: Trypan blue exclusion test (cytotoxicity); format: cell-based; settings: both test concentrations 1 μM and 10 μM (FIG. 14)
Description: as §3

[8] = Irradiation with natural light (photochemical stability); format: physicochemical; settings: natural light for a long period of time
Excerpt: Meanwhile, prior art (PCT/EP01/06103) discloses using polydatin of formula 5 above as sunblock.

[9] = listed as Reference Example 2, in Ethanol solvent
[10] = listed as Reference Example 3, in n-Propanol solvent
[11] = listed as Reference Example 4, in iso-Propanol solvent
[12] = listed as Reference Example 5, in n-Butanol solvent
[13] = listed as Reference Example 6, in DMSO solvent

Compound: COc1cc([C@@H]2c3cc4c(cc3[C@@H](O[C@@H]3O[C@@H]5CO[C@@H](C)O[C@H]5[C@H](O)[C@H]3O)[C@H]3COC(=O)[C@H]23)OCO4)cc(OC)c1O [Etoposide]
Western blot peaks resulting from cell extinction and damage [1]: significantly remarkable peak at 17 kDa, 19 kDa and 89 kDa positions

Compound: CCN=c1cc2oc3cc(NCC)c(C)cc3c(-c3ccccc3C(=O)OCC)c-2cc1C.Cl [rhodamin 6G]
quantum yield [2]: 0.95

Emission [3]: 547 nm
Excitation [3]: 390 nm
Emission [3, 9]: 540 nm
Emission [3, 10]: 534 nm
Emission [3, 11]: 525 nm
Emission [3, 12]: 536 nm
Emission [3, 13]: 497 nm
Absolute quantum yield [4]: 0.058
Absolute quantum yield [4, 9]: 0.145
Absolute quantum yield [4, 10]: 0.212
Absolute quantum yield [4, 11]: 0.311
Absolute quantum yield [4, 12]: 0.254
Absolute quantum yield [4, 13]: 0.439
Relative quantum yield [4]: 0.035
Relative quantum yield [4, 9]: 0.103
Relative quantum yield [4, 10]: 0.155
Relative quantum yield [4, 11]: 0.247
Relative quantum yield [4, 12]: 0.200
Relative quantum yield [4, 13]: 0.523
Compound: CC(=O)/C=C/c1ccc2cc(O)cc(O)c2c1 [Reference Example 1, (E)-4-(6,8-dihydroxynaphthalen-2-yl) but-3-en-2-one]

Compound: CC(=O)/C=C/c1ccc2cc(O[C@@H]3O[C@H](CO)[C@@H](O)[C@H](O)[C@H]3O)cc(O)c2c1 [Resveratrone glucoside, (E)-4-(8-hydroxy-6-(((2S,3R,4S,5S,6R)-3,4,5-trihydroxy-6-(hydroxymethyl)tetrahydro-2H-pyran-2-yl)oxy)naphthalen-2-yl)but-3-en-2-one]
Western blot peaks resulting from cell extinction and damage [5]: no peak at 17 kDa, 19 kDa and 89 kDa positions
cytomorphology and number change of the cultured cell vs control group [6]: no significant difference from the control group
number of cells alive vs control group [7]: number of cells similar to that of the control group

Compound: OC[C@H]1O[C@@H](Oc2cc(O)cc(/C=C/c3ccc(O)cc3)c2)[C@H](O)[C@@H](O)[C@@H]1O [polydatin, resveratrol 3-O-β-glucoside]
photochemical reaction product after irradiation [8]: any photochemical reaction product could not be found
